Assay results published in patent publication US20210352895A1, “SYNERGISTIC PESTICIDAL COMPOSITIONS AND METHODS FOR DELIVERY OF ACTIVE INGREDIENTS” (0903608 B.C. Ltd., priority 2018, published 2021).
“And” between values parts separate entries of the source, which are not always exact repeats. Equal entries are not always repeated.

Tests used:
Trichoplusia ni [1] = experiment: In-planta insecticidal efficacy of Pylon (chlorfenapyr) with unsaturated aliphatic acids on sprayed green cabbage plants, Colby synergy factor; type: in vivo, Trichoplusia ni (cabbage looper); details: 0.06 mg/mL aliphatic acid (salt)
Protocol: A stock solution for the potassium salt of (2E,4E)-2,4-hexadienoic acid was prepared by dissolving the salt in water to form a 20 mg/mL (20,000 ppm) solution. […] Each experiment was repeated at least 3 times.
(§1) While for SF<1, antagonism is present and for SF=1, the efficacy of the compounds is merely additive.

Trichoplusia ni [2] = experiment: In-vitro insecticidal efficacy of Pylon (chlorfenapyr) with unsaturated aliphatic acids in artificial diet, Colby synergy factor; type: in vivo, Trichoplusia ni (cabbage looper)
Protocol: A stock solution was prepared for each of trans-2-hexenoic acid and trans-3-hexenoic acid (both available from Sigma-Aldrich, St. Louis, Mo., USA), by dissolving each exemplary unsaturated aliphatic acid in 100% dimethylsulfoxide (DMSO) at a concentration of 20 mg/mL (20,000 ppm). A stock solution for the potassium salt of (2E,4E)-2,4-hexadienoic acid was prepared by dissolving the salt in water to form a 20 mg/mL (20,000 ppm) solution.
An artificial diet suitable for Trichoplusia ni (cabbage looper caterpillar) was prepared according to the modified McMorran artificial diet recipe known in the entomology field (containing agar, casein, potassium hydroxide, alphacel, Wesson's salt mix, sugar, toasted wheat germ, choline chloride, ascorbic acid, methyl paraben, aureomycin, linseed oil and vitamin solution).
The treated artificial diet was then used to fill each well of a 24-well treatment plate with approximately 0.5 mL of artificial diet, which was allowed to solidify at room temperature and stored overnight at approximately 4 C. […] Each experiment contained 3 replicates, and was repeated at least 3 times.
as §1

Fusarium oxysporum = experiment: Synergistic Growth Inhibition Assay (MIC / FIC index, resazurin, 96-well) on Fusarium oxysporum; type: cell-based; details: Compound A alone
Protocol: (§2) In some embodiments, the synergistic action between the pesticidal active ingredient, and the at least one C4-C10 (or alternatively C11 or C12) saturated or unsaturated aliphatic acid components of the pesticidal compositions according to embodiments of the present disclosure was tested using a Synergistic Growth Inhibition Assay, which is derived from and related to a checkerboard assay as is known in the art for testing of combinations of antimicrobial agents. In the Synergistic Growth Inhibition Assay used in accordance with some embodiments of the present disclosure, multiple dilutions of combinations of pesticidal active ingredient and at least one C4-C10 saturated or unsaturated aliphatic acid agents are tested in individual cells for inhibitory activity against a target pest or pathogenic organism. In one such embodiment, the combinations of pesticidal active ingredient and C4-C10 (or alternatively C11 or C12) saturated or unsaturated aliphatic acid agents may preferably be tested in decreasing concentrations. In a further such embodiment, the combinations of pesticidal active ingredient and C4-C10 (or alternatively C11 or C12) saturated or unsaturated aliphatic acid agents may be tested in increasing concentrations. These multiple combinations of the pesticidal active ingredient and at least one C4-C10 (or alternatively C11 or C12) saturated or unsaturated aliphatic acid agents may be prepared in 96-well microtiter plates. In one such embodiment, the Synergistic Growth Inhibition Assay then comprises rows which each contain progressively decreasing concentrations of the pesticidal active ingredient and one or more C4-C10 (or alternatively C11 or C12) saturated or unsaturated aliphatic acid agents to test for the MIC of the agents in combination at which growth of the target pest or pathogen is inhibited. Thus, each well of the microtiter plate is a unique combination of the two agents, at which inhibitory efficacy of the combination against the target pest or pathogen can be determined.
(§3) In one embodiment according to the present disclosure, for each row of microtiter cells in the Synergistic Growth Inhibition Assay, the FIC index is calculated from the lowest concentration of the pesticidal active ingredient and one or more C4-C10 saturated or unsaturated aliphatic acid agents necessary to inhibit growth of a target pest or pathogen. The FIC of each component is derived by dividing the concentration of the agent present in that well of the microtiter plate by the minimal inhibitory concentration (MIC) needed of that agent alone to inhibit growth of the target pest or pathogen. The FIC index is then the sum of these values for both agents in that well of the microtiter plate. The FIC index is calculated for each row as follows:
(§4) FICindex=MICa/MICA+MICb/MICB
(§5) Fractional inhibitory concentration indices may then used as measure of synergy. […] When the FIC index is equal to 1, the combination is additive.
(§6) Then, serial dilutions of these initial compositions in successive wells in the row of the microtiter plate were used to assay the pesticidal composition under the same conditions to determine the concentration of the composition combining the two agents corresponding to the microtiter well in which growth inhibition of the target pest or organism ceases.
Resazurin dye (also known as Alamar blue dye) was used as an indicator to determine the presence of growth or inhibition of growth of Fusarium oxysporum in the wells of the 96 well microtiter plates used in the exemplary Synergistic Growth Inhibition Assay. In addition to the color change of the resazurin dye in the presence of growth of the Fusarium oxysporum, an optical or visual examination of the microtiter well may also be made to additionally determine the presence of growth or inhibition of growth of the Fusarium oxysporum.

[3] = Solubility / effective solubilized concentration in 10% DMSO/90% PDB by HPLC; details: DMSO stock diluted 10-fold in PDB; verified by HPLC
Protocol: This solution was diluted 10-fold in potato dextrose broth (PDB) to give a concentration of 0.05 mg/mL in 10% DMSO/90% PDB.

Sclerotinia sclerotiorum = experiment: Synergistic Growth Inhibition Assay (MIC / FIC index, resazurin, 96-well) on Sclerotinia sclerotiorum; type: cell-based; details: Compound A alone
Protocol: as §2, §3, §4, §5, §6
(§7) Similarly to as described above, Resazurin was used as an indicator of growth or inhibition of growth of Sclerotinia sclerotiorum in the exemplary Synergistic Growth Inhibition Assay. In addition to the color change of the resazurin, an optical or visual examination of the microtiter well may also be made to additionally determine the presence of growth or inhibition of growth of the Sclerotinia sclerotiorum.

Botrytis cinerea = experiment: Synergistic Growth Inhibition Assay (MIC / FIC index, resazurin, 96-well) on Botrytis cinerea; type: cell-based
Protocol: as §2, §3, §4, §5, §6
as §7, with “Botrytis cinerea” for “Sclerotinia sclerotiorum”, “Botrytis cinerea.” for “Sclerotinia sclerotiorum.”

[4] = aliphatic acid (salt) 0.05 mg/mL
[5] = aliphatic acid (salt) 0.30 mg/mL

Question: With `CC=CC=CC(=O)[O-].[K+]` [2,4-hexadienoic acid, K-salt] as the molecule, how does the “Observed Efficacy (%)” value (Trichoplusia ni [1]; after 48 hours) read?
Answer: 13%

Question: What about the “Observed Efficacy (%)” value (Trichoplusia ni [1]; after 72 hours) of the same molecule?
Answer: 0%

Question: What does the source list for `CC=CC=CC(=O)[O-].[K+]` [2,4-hexenoic acid-Ksalt]?
Answer: 72 hr Obs. Efficacy (Trichoplusia ni [2]; [4]): 4%; 72 hr Obs. Efficacy (Trichoplusia ni [2]; [5]): 13%; 90 hr Obs. Efficacy (Trichoplusia ni [2]; [4]): 4%; 90 hr Obs. Efficacy (Trichoplusia ni [2]; [5]): 13%; 120 hr Obs. Efficacy (Trichoplusia ni [2]; [4]): 4%; 120 hr Obs. Efficacy (Trichoplusia ni [2]; [5]): 4%

Question: Which results are given for `CO/C=C(/C(=O)OC)c1ccccc1Oc1cc(Oc2ccccc2C#N)ncn1` [Azoxystrobin, reference compound]?
Answer: MIC (A) (Fusarium oxysporum; 48 hours incubation): 75 µg/mL and 150 µg/mL; MIC (A) (Fusarium oxysporum; Fusarium oxysporum, 2-fold dilutions, incubation period of 48 hours): 150 µg/mL; MIC (A) (Fusarium oxysporum; Fusarium oxysporum, incubation period of 48 hours): 150 µg/mL; effective solubilized concentration of working stock solution [3]: 0.15 mg/mL; MIC (A) (Sclerotinia sclerotiorum; 7 days incubation): 150 µg/mL and 75 µg/mL; MIC (A) (Sclerotinia sclerotiorum; Sclerotinia sclerotiorum, 2-fold dilutions, incubation period of 7 days): 150 µg/mL; MIC (A) (Sclerotinia sclerotiorum; Sclerotinia sclerotiorum, incubation period of 7 days): 150 µg/mL; MIC (A) (Botrytis cinerea; Compound A alone, 48 hours incubation): 37.5 µg/mL and 75 µg/mL; MIC (A) (Botrytis cinerea; Compound A alone, Botrytis cinerea, incubation period of 2 days): 150 µg/mL; MIC (A) (Botrytis cinerea; Compound A alone, Botrytis cinerea, incubation period of 48 hours): 150 µg/mL; MIC (A) (Botrytis cinerea; Table 45, Compound A = azoxystrobin, alone or in combination with Compound B, 48 hours incubation): 75 µg/mL
